Test: Lipophilicity determined as logarithm of the partition coefficient in the alkane/water system
Conditions: octanol/water

Point of comparison: `c1ccc2[nH]ccc2c1` [INDOLE], “Log PNalk” value 0.68. Against it:
- c1ccc(-c2ccncc2)cc1 — higher, 1.58
- CSC — higher, 0.98
- CNc1ccccc1 — higher, 1.11
- Oc1ccccc1Br — higher, 1.04
- [O-][n+]1cccc2ccccc21 — lower, -2.05
- Cc1cc(C)cc(O)c1 — lower, 0.32
- COc1ccccc1C(=O)O — higher, 2.08
- [O-][n+]1ccc(-c2ccccc2)cc1 — lower, -2.36
- Cc1ccc(C)c(O)c1 — lower, 0.38
- [O-][n+]1ccc2ccccc2c1 — lower, -2.51
- CSc1ccccc1 — higher, 2.81
- N#Cc1ccccc1O — lower, -1.85
- CCCCC(C)=O — within 0.2 log units, 0.87
- CC(C1=C(CCN(C)C)Cc2ccccc21)c1ccccn1 (stereo not given) — higher, 1.65
- O=C(O)c1cccc([N+](=O)[O-])c1 — lower, -1.22
- Cc1ccc(O)c(C)c1 — lower, 0.34
- CC(C)c1ccccc1O — higher, 0.96
- Oc1cc(Cl)cc(Cl)c1 — lower, 0.35
- [O-][S+](c1ccccc1)c1ccccc1 — within 0.2 log units, 0.67
- CN(C)c1ccccc1 — higher, 2.4
- CCCC(C)=O — lower, 0.43
- Oc1ccc(C(F)(F)F)cc1 — lower, -0.15
- Oc1cccc(F)c1 — lower, -0.83
- CCCCCCCO [1-HEPTANOL] — higher, 1.01
- CCCCCO [1-PENTANOL] — lower, -0.4
- COc1cccc(O)c1 [1-hydroxy-3-methoxybenzene] — lower, -0.88
- Oc1c(Cl)cccc1Cl [2,6-DICHLOROPHENOL] — higher, 1.31
- Oc1ccccc1Cl [2-CHLOROPHENOL] — within 0.2 log units, 0.76
- Nc1ccccc1[N+](=O)[O-] [2-NITROANILINE] — lower, 0.31
- Nc1cccc(Cl)c1 [3-CHLOROANILINE] — within 0.2 log units, 0.71
- O=[N+]([O-])c1cccc(O)c1 [3-NITRO-PHENOL] — lower, -1.23
- Nc1cccc([N+](=O)[O-])c1 [3-NITROANILINE] — lower, -0.46
- Nc1ccc(Cl)cc1 [4-CHLOROANILINE] — within 0.2 log units, 0.57
- N#Cc1ccc(O)cc1 [4-CYANOPHENOL] — lower, -2.29
- O=S(=O)(c1ccccc1)c1ccccc1 [(PHENYLSULFONYL)BENZENE] — higher, 1.45
- CC(=O)Nc1ccccc1 [ACETANILIDE] — lower, -1.7
- COC(C)=O [ACETIC ACID METHYL ESTER] — lower, -0.26
- CCCOC(C)=O [ACETIC ACID PROPYL ESTER] — higher, 0.9
- CC(C)=O [ACETONE] — lower, -0.91
- CC(=O)c1ccccc1 [ACETOPHENONE] — higher, 1.14
- C[C@]12CCC(=O)C=C1CC[C@@H]1[C@@H]2[C@@H](O)C[C@]2(C=O)[C@@H](C(=O)CO)CC[C@@H]12 [ALDOSTERONE] — lower, -2.7
- CC(N)Cc1ccccc1 (stereo not given) [AMPHETAMINE] — within 0.2 log units, 0.73
- Nc1ccccc1 [ANILINE] — lower, 0.03
- COc1ccccc1 [ANISOLE] — higher, 2.15
- COc1ccc(CCN2CCC(Nc3nc4ccccc4n3Cc3ccc(F)cc3)CC2)cc1 [ASTEMIZOLE] — higher, 0.95
- CN1CCC(=C2c3ccccc3CCc3cccnc32)CC1 [AZATADINE] — higher, 1.82
- CCC1(CC)C(=O)NC(=O)NC1=O [BARBITAL] — lower, -2.15
- O=Cc1ccccc1 [BENZALDEHYDE] — higher, 1.12
- N#Cc1ccccc1 [BENZONITRILE] — higher, 0.9
- OCc1ccccc1 [BENZYL ALCOHOL] — lower, -0.62
- NCc1ccccc1 [BENZYLAMINE] — lower, -0.21
- Oc1ccc2ccccc2c1 [BETANAPHTHOL] — lower, 0.3
- c1ccc(-c2ccccc2)cc1 [BIPHENYL] — higher, 4
- Brc1ccccc1 [BROMOBENZENE] — higher, 3.12
- CCC(C)=O [BUTANONE] — lower, -0.25
- CCCCN [BUTYLAMINE] — lower, -0.62
- O=C(O)CCl [CHLOROACETIC ACID] — lower, -3.14
- Clc1ccccc1 [CHLOROBENZENE] — higher, 2.99
- CN(C)CCC(c1ccc(Cl)cc1)c1ccccn1 (stereo not given) [CHLORPHENIRAMINE] — higher, 2.09
- CN(C)CCCN1c2ccccc2Sc2ccc(Cl)cc21 [CHLORPROMAZINE] — higher, 4.37
- Cc1ncc2c(c1O)COC2c1ccc(Cl)cc1 (stereo not given) [CICLETANINE] — lower, -1.76
- C[C@]12C[C@H](O)[C@H]3[C@@H](CCC4=CC(=O)CC[C@@]43C)[C@@H]1CC[C@@H]2C(=O)CO [CORTICOSTERONE] — lower, -1.62
- C[C@]12CCC(=O)C=C1CC[C@@H]1[C@@H]2CC[C@@]2(C)[C@H]1CC[C@]2(O)C(=O)CO [CORTODOXONE] — lower, -1
- C[C@]12CC[C@H]3[C@@H](CCC4=CC(=O)CC[C@@]43C)[C@@H]1CC[C@@H]2C(=O)CO [DESOXYCORTICOSTERONE] — lower, 0.48
- O=C([O-])Cc1ccccc1Nc1c(Cl)cccc1Cl.[Na+] [DICLOFENAC SODIUM] — higher, 1.72
- COc1ccc([C@@H]2Sc3ccccc3N(CCN(C)C)C(=O)[C@@H]2OC(C)=O)cc1 [DILTIAZEM] — higher, 1.37
- CN[C@@H](C)[C@H](O)c1ccccc1 [EPHEDRINE] — lower, -0.77
- NC1=NCC2c3ccccc3Cc3ccccc3N12 (stereo not given) [EPINASTINE] — higher, 1.76
- C[C@]12CC[C@@H]3c4ccc(O)cc4CC[C@H]3[C@@H]1CC[C@@H]2O [ESTRADIOL] — lower, -0.2
- C[C@]12CC[C@@H]3c4ccc(O)cc4CC[C@H]3[C@@H]1C[C@@H](O)[C@@H]2O [ESTRIOL] — lower, -0.64
- C[C@]12CC[C@@H]3c4ccc(O)cc4CC[C@H]3[C@@H]1CCC2=O [ESTRONE] — lower, 0.48
- CCOC(C)=O [ETHYL ACETATE] — lower, 0.29
- CCN [ETHYLAMINE] — lower, -1.77
- CC1CCc2cc(F)cc3c(=O)c(C(=O)O)cn1c23 (stereo not given) [FLUMEQUINE] — lower, -1.37
- Fc1ccccc1 [FLUOROBENZENE] — higher, 2.46
- CC(C(=O)O)c1ccc(-c2ccccc2)c(F)c1 (stereo not given) [FLURBIPROFEN] — higher, 1.49
- COc1ccccc1O [GUAIACOL] — lower, 0.36
- N=C(N)N/N=C/c1c(Cl)cccc1Cl [GUANABENZ] — lower, -1.6
- O=C(CCCN1CCC(O)(c2ccc(Cl)cc2)CC1)c1ccc(F)cc1 [HALOPERIDOL] — higher, 1.53
- CCCCCC(=O)O [HEXANOATE] — lower, 0.24
- CN1C(=O)NC(=O)C(C)(C2=CCCCC2)C1=O (stereo not given) [HEXOBARBITAL] — lower, -0.57
- OCCOCCN1CCN(C(c2ccccc2)c2ccc(Cl)cc2)CC1 (stereo not given) [HYDROXYZINE] — higher, 1.25
- CC(C)Cc1ccc(C(C)C(=O)O)cc1 (stereo not given) [IBUPROFEN] — higher, 2.08
- COc1ccc2c(c1)c(CC(=O)O)c(C)n2C(=O)c1ccc(Cl)cc1 [INDOMETHACIN] — higher, 0.98
- Ic1ccccc1 [IODOBENZENE] — higher, 3.33
- CC(C)CO [ISOBUTANOL] — lower, -0.98
- c1ccc2cnccc2c1 [ISOQUINOLINE] — higher, 1.11
- CC(C(=O)O)c1cccc(C(=O)c2ccccc2)c1 (stereo not given) [KETOPROFEN] — lower, 0
- COc1ccc(O)cc1 [MEQUINOL] — lower, -1.03
- Cc1cccc(O)c1 [METACRESOL] — lower, -0.35
- CN[C@@H](C)Cc1ccccc1 [METHAMPHETAMINE] — higher, 1.24
- CO [METHYL ALCOHOL] — lower, -2.8
- COC(=O)c1ccccc1 [METHYL BENZOATE] — higher, 2.13
- CS(=O)(=O)c1ccccc1 [METHYLPHENYLSULFONE] — lower, -0.87
- C[S+]([O-])c1ccccc1 (stereo not given) [METHYLPHENYLSULFOXIDE] — lower, -1.52
- COCCc1ccc(OCC(O)CNC(C)C)cc1 (stereo not given) [METOPROLOL] — lower, -0.38
- CN1CCC[C@H]1c1cccnc1 [NICOTINE] — lower, 0.03
- O=[N+]([O-])c1ccc(/C=N/O)o1 [NIFUROXIME] — lower, -1.1
- O=[N+]([O-])c1ccccc1 [NITROBENZENE] — higher, 1.55
- O=[N+]([O-])c1ccccc1O [NITROPHENOLATE] — higher, 1.04
- Cc1ccccc1N [O-TOLYLAMINE] — lower, 0.47
- Cc1ccccc1O [ORTHOCRESOL] — lower, 0.25
- O=[N+]([O-])c1ccc(O)cc1 [P-NITROPHENOL] — lower, -2.15
- COc1ccc(Cc2nccc3cc(OC)c(OC)cc23)cc1OC [PAPAVERINE] — within 0.2 log units, 0.75
- O=C(O)c1ccc(O)cc1 [PARABEN] — lower, -1.82
- Oc1ccc(Cl)cc1 [PARACHLOROPHENOL] — lower, -0.12
- CC(C)(C)NC[C@H](O)COc1ccccc1C1CCCC1 [PENBUTOLOL] — higher, 3.06
- CCCCC [PENTANE] — higher, 4.18
- CCCC(C)C1(CC)C(=O)NC(=O)NC1=O (stereo not given) [PENTOBARBITAL] — lower, -1.22
- Nc1ccc(/N=N/c2ccccc2)c(N)n1 [PHENAZOPYRIDINE] — lower, 0.42
- CCC1(c2ccccc2)C(=O)NC(=O)NC1=O [PHENOBARBITAL] — lower, -2.75
- Oc1ccccc1 [PHENOL] — lower, -0.82
- O=C(O)Cc1ccccc1 [PHENYLACETIC ACID] — lower, -1.6
- O=C1NC(=O)C(c2ccccc2)(c2ccccc2)N1 [PHENYTOIN] — lower, -0.3
- CNC(=O)Oc1ccc2c(c1)[C@]1(C)CCN(C)[C@@H]1N2C [PHYSOSTIGMINE] — lower, -0.46
- CC(=O)[C@H]1CC[C@H]2[C@@H]3CC=C4C[C@@H](O)CC[C@]4(C)[C@H]3CC[C@]12C [PREGNENOLONE] — within 0.2 log units, 0.62
- CCN(CC)CCOC(=O)c1ccc(N)cc1 [PROCAINE] — lower, -0.67
- CC(=O)[C@H]1CC[C@H]2[C@@H]3CCC4=CC(=O)CC[C@]4(C)[C@H]3CC[C@]12C [PROGESTERONE] — higher, 1.23
- CCC(=O)O [PROPIONIC ACID] — lower, -2.14
- COc1ccc(CN(CCN(C)C)c2ccccn2)cc1 [PYRILAMINE] — higher, 2
- c1ccc2ncccc2c1 [QUINOLINE] — higher, 1.26
- O=C(O)c1ccccc1O [SALICYLIC ACID] — lower, -0.92
- C=CCC1(C(C)CCC)C(=O)NC(=O)NC1=O (stereo not given) [SECOBARBITAL] — lower, -0.99
- Cc1ccc(Cc2cnc(NCCCCc3ncc(Br)cc3C)[nH]c2=O)cn1 [TEMELASTINE] — higher, 1.28
